According to patent US12398196B2, “Fused polypeptide with multifunctional activities and use thereof” (NANJING ANJI BIOLOGICAL TECHNOLOGY CO., LTD., priority 2019, dated 2025):
Ends that are not written are not given here.

Key:
Mycoplasma pneumoniae = experiment: Mouse pneumonia model, mycoplasma pneumonia; assay type: in vivo, BALB/C mice; parameters: unit not given here; conditions: nasal drip, average values + standard deviation
Text: (§1) A mouse pneumonia model was successfully established by using a nasal drip method. BALB/C mice with a body weight of 18-24 g were selected, and then anesthetized with ether on day 0, day 1 and day 2, respectively, prepared Streptococcus pneumoniae bacteria solution, adenovirus concentrated solution, Mycoplasma pneumoniae, Chlamydia pneumoniae, protozoa and pneumonia fungi were slowly dropped into the nasal cavity of the mice, so that the bacteria solutions entered the trachea and bronchi, and the bacteria solutions were prevented from flowing into the esophagus during the operation to avoid inactivation of the bacteria solutions, so that the mouse pneumonia model was established. After the model was successfully established, the polypeptide according to the present disclosure was administered, as shown in FIG. 9 and Table 7. […] The experimental results are represented on the basis of average values+standard deviation.

Chlamydia pneumoniae = experiment: Mouse pneumonia model, chlamydia pneumonia; assay type: in vivo, BALB/C mice; parameters: unit not given here; conditions: nasal drip, average values + standard deviation
Text: as §1

adenovirus = experiment: Mouse pneumonia model, viral pneumonia; assay type: in vivo, BALB/C mice; parameters: unit not given here; conditions: nasal drip, average values + standard deviation
Text: as §1

[1] = tested on: SD rats with CCl4-induced hepatic fibrosis; experiment: CCl4-induced hepatic fibrosis animal model; assay type: in vivo; conditions: CCl4 8 weeks, polypeptides 6 mg/kg s.c. once a day, colchicine intragastric 5 times/week
Procedure: Source and strain: SPF level, SD rats, provided by Shanghai Xipuer-Bikai laboratory Animal Co., Ltd. (laboratory animal license: SCXK (hu) 2013-0016)
There were 10 rats in each group. Modeling was performed on the rats. Each group other than the blank group was injected with 40% CCl4 intraperitoneally twice a week, the first injection was performed at 3 mL/kg, and then administration was performed at 2 mL/kg. Administration was performed for 8 weeks, and a total of 16 injections were provided to induce hepatic fibrosis. After the intraperitoneal injection of CCl4 for the fourth time, polypeptide therapy was started on the next day, and administration was performed by subcutaneous injection once a day until the end of induction. After the intraperitoneal injection of CCl4 for the fourth time, colchicine was administrated on the next day at 200 μg/kg, 5 times a week, and intragastric administration therapy was implemented. After induction for 8 weeks, the administration was stopped. On the second day, the SD rats were dissected, blood was taken, and the liver tissue was taken and stored in a refrigerator at −80° C. for later use. The expressions of AST and ALT in serum and HYP in the rat liver tissue were detected.

mice with skin fibrosis = experiment: Bleomycin-induced skin fibrosis model; assay type: in vivo, C57/BL black mice; conditions: C57/BL mice, bleomycin s.c. 28 days; 10 mg/kg s.c. twice a day
Procedure: Male C57/BL black mice aged 6-8 weeks, purchased from Nanjing Qinglong Mountain Animal Farm. Bleomycin (10 μg/mL) was injected subcutaneously every day for 28 days to form skin fibrosis. During the modeling period, the administration groups were given polypeptide drugs twice a day for treatment. After modeling, the mice were killed on the next day, and the skin tissue of the mouse back was taken to detect the content of HYP in the skin tissue. [table]

[2] = tested on: multiple pulmonary infections; experiment: Mouse pneumonia model, pneumonia caused by pulmonary infections; assay type: in vivo, BALB/C mice; parameters: unit not given here; conditions: nasal drip, average values + standard deviation
Text: as §1

[3] = tested on: SD rats with renal fibrosis; experiment: Renal fibrosis model (ureter ligation); assay type: in vivo; conditions: 6 mg/kg s.c. twice a day, 14 days
Procedure: Clean grade male SD rats, purchased from Nanjing Qinglong Mountain Animal Farm, and weighed 180-200 g at the time of purchase, 190-210 g at the beginning of modeling, and 180-200 g at the beginning of administration.
A renal fibrosis animal model was established. SD rats were anesthetized with 4% chloral hydrate, injected with 1 mL/100 g intraperitoneally, fixed to an operation board, and sterilized in an operation area for later use. […] Muscular layers and abdominal walls were sewed layer by layer, the suture was disinfected with alcohol. After SD rats woke up, the rats were put into a cage for feeding. In the blank group, ureter was not ligated, and other steps were the same.
Then, the animals fell into a blank group, a model group, and polypeptide administration groups, with 10 animals in each group, and the administration was started on the second day after the operation, and was performed for 14 days. After administration for 14 days, blood was taken and supernatant was taken to detect the content of TGF-β1 in serum.

[4] = tested on: mice with myocardial fibrosis; experiment: Isoprenaline-induced myocardial fibrosis model; assay type: in vivo; conditions: BALB/c mice, isoprenaline 5 mg/kg 7 days; 12 mg/kg s.c. twice a day
Procedure: 1. Experimental Mice: 10-Week-Old Male BALB/c Mice (with an Average Weight of 20 g).
In the model group, the experimental mice were injected with isoprenaline (ISO) (5 mg/kg) subcutaneously on the back of the mice every day for 7 consecutive days, and the mice were injected with normal saline subcutaneously (200 μL/mouse) every day. In the blank group, normal saline was injected subcutaneously (200 μL/mouse) every day. While a model was made, polypeptide drugs were administrated for treatment by subcutaneous injection. After the 8th day, blood was taken and was centrifuged, the supernatant was taken, and the content of TGF-β1 in serum was detected.

[5] = tested on: SD rats with bleomycin-induced pulmonary fibrosis; experiment: Bleomycin-induced pulmonary fibrosis animal model; assay type: in vivo
Procedure: Source and strain: clean SD rats, provided by Comparative Medicine Center of Yangzhou University (laboratory animal production license: SCXK (Su) 2012-0004); Certification of Using of Laboratory Animal: SYXK (Su) 2012-0035).
SD rats were anesthetized by intraperitoneal injection of 1 mL/100 g 4% chloral hydrate. After anesthesia, the rats were fixed and their necks were disinfected by using cotton with 75% alcohol. The skin of the rat neck was longitudinally cut with scissors, and the fascia and muscle were longitudinally bluntly torn with tweezers to expose the trachea. A syringe was inserted into the trachea to inject 5 mg/kg bleomycin, while a blank group was injected with an equal amount of normal saline. Then a rat plate was quickly erected and rotated, the rats' breathing was observed, the neck wound was sterilized after rotation and was sewn, and an amoxicillin anti-inflammatory drug was sprinkled on the suture. After the operation, the rats were put back into a dry and clean cage for resting, waiting was performed for awakening. The rats were awakened after about 1-2 hours, and then fed normally. On the 7th day after modeling, modeling group animals randomly fell into a model group, a Nintedanib positive drug group, polypeptide I, II, III and IV dosage groups, and a normal control group, and the groups were administered separately for an administration cycle of 14 days. Living situations of rats were observed every day and their weights were weighed. After administration for 14 days, the eyeballs were removed and blood was taken, the rats were dissected, and lungs were taken. The content of TGF-β1 in serum and the content of HYP in lung tissues were detected.

protozoa = experiment: Mouse pneumonia model, protozoal pneumonia; assay type: in vivo, BALB/C mice; parameters: unit not given here; conditions: nasal drip, average values + standard deviation
Text: as §1

pneumonia fungi = experiment: Mouse pneumonia model, fungal pneumonia; assay type: in vivo, BALB/C mice; parameters: unit not given here; conditions: nasal drip, average values + standard deviation
Text: as §1

Streptococcus pneumoniae = experiment: Mouse pneumonia model, bacterial pneumonia; assay type: in vivo, BALB/C mice; parameters: unit not given here; conditions: nasal drip, average values + standard deviation
Text: as §1

[6] = bleomycin-induced pulmonary fibrosis, polypeptides 10 mg/kg s.c. twice a day, Nintedanib 25 mg/kg intragastric once a day, 14 days

PRCYRGEGGGGIVRRADRAAVPGGGGRGD [Polypeptide II]
Inhibitory effect on pulmonary infections: Mycoplasma pneumonia (Mycoplasma pneumoniae): 45.69 ± 5.72 | Inhibitory effect on pulmonary infections: Chlamydia pneumonia (Chlamydia pneumoniae): 45.81 ± 5.21 | Inhibitory effect on pulmonary infections: Viral pneumonia (adenovirus): 50.27 ± 8.08 | content of AST in serum, difference from model group [1]: highly significantly different from the model group (*** P<0.001) | content of HYP in the liver tissue, difference from model group [1]: highly significantly different from the model group (*** P<0.001) | content of HYP in the skin tissue, difference from model group (mice with skin fibrosis): highly significantly different from the model group (*P<0.05) | Inhibitory effect on pulmonary infections: Pneumonia caused by pulmonary infections [2]: 63.15 ± 5.87 | content of TGF-β1 in serum, difference from model group [3]: highly significantly different from the model group (*** P<0.001) | content of TGF-β1 in serum, difference from model group [4]: highly significantly different from the model group (*P<0.05) | Survival rate (%) ([5]; bleomycin 5 mg/kg intratracheal, polypeptides 10 mg/kg subcutaneous twice a day for 14 days, positive drug Nintedanib intragastric once a day, model group 57.1%): 78.6% | reduction of HYP in lung tissues compared with the positive drug ([5]; bleomycin-induced pulmonary fibrosis, comparison with Nintedanib): better effects than the positive drug | content of HYP in lung tissues, difference from model group [5, 6]: highly significantly different from the model group (*** P<0.001) | content of TGF-β1 in serum, difference from model group [5, 6]: highly significantly different from the model group (*** P<0.001) | Inhibitory effect on pulmonary infections: Protozoal pneumonia (protozoa): 63.60 ± 6.16 | Inhibitory effect on pulmonary infections: Fungal pneumonia (pneumonia fungi): 60.32 ± 3.07 | Inhibitory effect on pulmonary infections: Bacterial pneumonia (Streptococcus pneumoniae): 41.25 ± 9.48
